From patent publication US20230234967A1, “Fused Azole Heterocycles as AHR Antagonists” (Senda Biosciences, Inc., priority 2021, published 2023)

Tests used:
AHR = biological target: T1, AHR (Homo sapiens, UniProt P35869); assay: DRE-Luciferase Reporter Assay (HepG2 AhR-Lucia reporter cells); type: cell-based; settings: AHR activating ligand at its EC50, luciferase read-out, read-out: HEPG2 Luc IC50
T1 construct: other cell line with a DRE-luciferase reporter stably transfected; endogenous in cells; host or cells: Human HepG2 liver carcinoma AhR-Lucia reporter cells
T1 sequence (P35869 11-848): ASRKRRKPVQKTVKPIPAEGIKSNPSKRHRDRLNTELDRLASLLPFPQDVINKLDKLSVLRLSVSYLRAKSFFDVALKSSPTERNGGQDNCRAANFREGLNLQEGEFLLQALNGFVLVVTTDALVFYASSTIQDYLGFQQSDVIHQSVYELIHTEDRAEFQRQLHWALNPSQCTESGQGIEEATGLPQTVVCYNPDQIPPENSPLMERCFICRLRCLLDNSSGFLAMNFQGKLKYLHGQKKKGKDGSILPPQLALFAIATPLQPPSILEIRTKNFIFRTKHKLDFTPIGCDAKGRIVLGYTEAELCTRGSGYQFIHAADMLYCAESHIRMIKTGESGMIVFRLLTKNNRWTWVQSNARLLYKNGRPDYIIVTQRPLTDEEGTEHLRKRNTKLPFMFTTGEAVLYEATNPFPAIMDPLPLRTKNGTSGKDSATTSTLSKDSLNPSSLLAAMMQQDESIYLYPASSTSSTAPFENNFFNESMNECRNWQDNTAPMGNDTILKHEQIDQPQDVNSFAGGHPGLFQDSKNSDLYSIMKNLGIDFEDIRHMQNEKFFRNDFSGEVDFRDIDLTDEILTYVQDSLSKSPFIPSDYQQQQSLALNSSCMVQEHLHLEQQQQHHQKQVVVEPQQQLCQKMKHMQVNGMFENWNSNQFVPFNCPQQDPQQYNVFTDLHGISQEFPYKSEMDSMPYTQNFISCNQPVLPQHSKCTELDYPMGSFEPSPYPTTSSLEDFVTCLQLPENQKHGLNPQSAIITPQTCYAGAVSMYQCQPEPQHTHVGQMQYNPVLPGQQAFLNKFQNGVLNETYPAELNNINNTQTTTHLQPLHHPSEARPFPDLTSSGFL
Excerpt: Example 27: DRE-Luciferase Reporter Assay
AHR binds to Dioxin Responsive Elements (DRE) upstream of genes that it activates. One measure of AHR activity is activation of a reporter gene, such as luciferase, downstream of one or multiple DRE elements. Luciferase activity will reflect activation and inhibition of AHR in the cells expressing his reporter. 20000 Human HepG2 liver carcinoma—AhR-Lucia reporter cells or Human HT29 colon adenocarcinoma—AhR reporter cells or other cell line with a DRE-luciferase reporter stably transfected were plated in Eagle's Minimal Essential Medium, 10% heat-inactivated FBS, 1×non-essential amino acids Pen-Strep (10,000 U/mL) and Normocin (100 ug/mL) in plates (96-well, 384-well or other plates) and incubated overnight at 37° C. in a CO2 incubator and treated with and without AhR antagonists at a log dilution starting at 100 uM.
After 1 hr that cells were plated an AHR activating ligand, such as TCDD, kynurenine, ITE (2-(1H-indole-3-ylcarbonyl)-4-thiazolecarboxylic methyl ester), VAF347, BNF (beta-naphthoflavone), FICZ (6-formylindolo(3,2-b) carbazole) or other AHR ligands at their specific EC50 concentration, were added to the cells with or without AHR antagonist.
Cells were incubated for 24 or 48 hours or another time point and then, supernatant was analyzed for determination of luciferase activity as a read-out of the AHR activation or inhibition. Luciferase was measured with the commercial kit QUANTI-Luc™ assay solution kit from Invivogen following the manufacturer's instructions.
The level of luciferase with only agonist ligand added was the maximum signal while the luciferase with […] was the minimum signal. IC50 values were determined as the concentration which inhibits half of the luciferase activity. “A” indicates an IC50 value less than 100 nM, “B” indicates an IC50 between 100 and 500 nM, “C” indicates an IC50 above 500 nM.

[1] = Hepatocyte Stability Assay, human hepatocytes; type: in vitro ADME; settings: cryopreserved human hepatocytes, read-out: Human hepatocyte clearance
Procedure: Example 32: Hepatocyte Stability Assay
Preparation of working solutions: 10 mM stock solutions of test compound and positive control were prepared in DMSO. In separate conical tubes, the 10 mM solution of test compound and the positive control were diluted to 100 μM by combining 198 μL of 50% acetonitrile/50% water and 2 μL of 10 mM stock.
Preparation of Hepatocytes: Incubation medium (William's E Medium supplemented with GlutaMAX) and hepatocyte thawing medium were placed in a 37° C. water bath and allowed warming for at least 15 minutes prior to use. A vial of cryopreserved hepatocytes was transferred from storage, ensuring that vials remained at cryogenic temperatures until thawing process ensued. Cells were thawed by placing the vial in a 37° C. water bath and gently shaking the vials for 2 minutes. After thawing was completed, vial was sprayed with 70% ethanol and transferred to a biosafety cabinet. Wide-bore pipette tip were used to transfer hepatocytes into 50 mL conical tube containing thawing medium. The 50 mL conical tube were placed into a centrifuge and spun at 100 g for 10 minutes. Upon completion of spin, thawing medium was aspirated and resuspended hepatocytes in enough incubation medium to yield ˜1.5×10^6 cells/mL. Using an AO/PI Staining, cells were counted and the viable cell density was determined. Cells with poor viability (<75% viability) were determined to be not acceptable for use. Cells were diluted with incubation medium to a working cell density of 0.5×10^6 viable cells/mL.
Procedure for Stability Determination: 198 μL of hepatocytes were pipetted into each wells of a 96-well non-coated plate. The plate was placed in the incubator to allow the hepatocytes to warm for 10 minutes. 2 μL of the 100 μM test compound or positive control solutions were pipetted into respective wells of the 96-well non-coated plate to start the reaction. The plate was returned to the incubator for the designed time points. Well contents was transferred in 25 μL aliquots at time points of 0, 15, 30, 60, 90 and 120 minutes. The aliquots were then mixed with 6 volumes (150 μL) of acetonitrile containing internal standard, IS (100 nM alprazolam, 200 nM caffeine and 100 nM tolbutamide) to terminate the reaction. The mixture was vortex for 5 minutes. Samples were centrifuged for 45 minutes at 3,220 g. An aliquot of 100 μL of the supernatant was diluted by 100 μL ultra-pure water, and the mixture was used for LC/MS/MS analysis. All incubations were performed in duplicate.
Data Analysis: All calculations were carried out using Microsoft Excel. Peak areas were determined from extracted ion chromatograms. In vitro half-life (t1/2) of parent compound was determined by regression analysis of the percent parent disappearance vs. time curve.
The in vitro half-life (in vitro t1/2) was determined from the slope value:
Conversion of the in vitro t1/2 (in min) into the in vitro intrinsic clearance (in vitro CLint, in μL/min/1×10^6 cells) was done using the following equation (mean of duplicate determinations): • in vitro CLint=kV/N • V=incubation volume (0.2 mL); • N=number of hepatocytes per well (0.1×10^6 cells).
“+++” indicates a CLint value less than 20 mL/min/Kg, “++” indicates a CLint between 20 and 50 mL/min/Kg, and “+” indicates an CLint above 50 mL/min/Kg.

IC50 (AHR) [nM] | CLint scaled at 1 µM [1] [mL/min/kg] | Compound
< 100 | 20 to 50 | CN(C)c1ccccc1-c1ccc2nc(NC(=O)c3ccnn3C)sc2n1 [Product 18, N-(5-(2-(dimethylamino)phenyl)thiazolo[5,4-b]pyridin-2-yl)-1-methyl-1H-pyrazole-5-carboxamide]
< 100 | < 20 | Cc1ccccc1-c1ccc2nc(NC(=O)c3ccnn3C)sc2n1 [Product 15, 1-Methyl-N-(5-(o-tolyl)thiazolo[5,4-b]pyridin-2-yl)-1H-pyrazole-5-carboxamide]
< 100 | < 20 | COc1ccccc1-c1ccc2nc(NC(=O)c3ccnn3C)sc2n1 [Product 25, N-(5-(2-methoxyphenyl)thiazolo[5,4-b]pyridin-2-yl)-1-methyl-1H-pyrazole-5-carboxamide]

More lines, now with the values behind:

Compound | IC50 (AHR) [nM] | CLint scaled at 1 µM [1] [mL/min/kg]
Cc1ccccc1-c1ccc2nc(NC(=O)N3CCOCC3)sc2n1 [Product 39, N-(5-(o-tolyl)thiazolo[5,4-b]pyridin-2-yl)morpholine-4-carboxamide] | < 100 | < 20
Cn1ncnc1C(=O)Nc1cnc2cc(-c3cc(F)ccc3C(F)F)[nH]c2c1 [Product 47] | < 100 | < 20
Cc1ccccc1-c1ccc2nc(NC(=O)c3ccccn3)sc2n1 [Product 8, N-(5-(o-tolyl)thiazolo[5,4-b]pyridin-2-yl)picolinamide] | < 100 | 20 to 50
COc1ccccc1-c1ccc2nc(NC(=O)c3ccccn3)sc2n1 [Product 12, N-(5-(2-methoxyphenyl)thiazolo[5,4-b]pyridin-2-yl)picolinamide] | < 100 | 20 to 50
